Experiments:
[1] = test system: KM12 cells; experiment: Luciferase competitive growth assay, rescue by ectopic WRN cDNA; assay type: cell-based
Description: The catalytically active version, exonuclease-dead (E84A), helicase-dead (K577M) and dually exonuclease and helicase-dead (E84A/K577M) versions of WRN cDNA were a gift from R. J. Monnat (Addgene, plasmids 46038, 46036, 46035 and 46037, respectively). […] The WRN sequence was cloned into a modified lentiviral expression vector, pLX_TRC209, under an EF1A promoter and modified to contain a neomycin-selectable marker. Sanger sequencing of the vectors and genomic DNA after integration were performed to confirm sequence identity. Lentivirus was produced as described below and transduced into dually Cas9-Firefly-luciferase-expressing KM12 cells to create stable ectopic WRN cDNA-expressing cell lines.
Dual Cas9-Firefly-luciferase- and Renilla-luciferase-expressing cells were generated by transduction of Firefly-luciferase cDNA and Renilla-luciferase cDNA, respectively, in a pLX_TRC313 lentiviral expression vector containing a hygromycin-resistance gene. After hygromycin selection, these two versions of the cell line were co-seeded in a 96 well plate at the following densities per well for each version: ES2 2×10^3 cells per well, OVK18, 3×10^3 cells per well; SW620, 4×10^3 cells per well; KM12, 4×10^3 cells per well. The following day, cells were transduced with lentivirus expressing the indicated sgRNA and a puromycin-resistance gene in six replicates. The day following viral transduction, the medium was changed to include puromycin. Cells were split and assayed with the Dual-Glo Luciferase Assay System (Promega) per the manufacturer's recommendations every 3-4 days. Luminescence was determined using the Perkin Elmer EnVision 2105. Values are presented as the ratio of Firefly to Renilla-luciferase luminescence signal per condition and normalized to the mean of the corresponding negative control sgRNAs for each cell line. Experiments in FIG. 2C and FIG. 7B were performed three times. Two-tailed Student's t-tests were performed when comparing single sgRNAs (FIG. 2C). Two-way ANOVAs were performed when multiple WRN sgRNAs were compared to negative controls (FIG. 7B).

[2] = test system: WRN; experiment: Immunoblot of WRN levels after sgRNA transduction; assay type: cell-based; conditions: KM12 cells expressing WRN cDNA (FIG. 2B)
Description: For immunoblotting, cells were lysed in RIPA buffer (Sigma-Aldrich) supplemented with complete Protease Inhibitor Cocktail (Roche, 11697498001) and a Halt Phosphatase Inhibitor Cocktail (Thermo Fischer Scientific, 78428). For etoposide and hydroxyurea treatment (FIG. 4A), cells were treated with 10 μM etoposide and 1 mM hydroxyurea, respectively, 6 h before collection. Lysates were fractionated in 4-12% Bis-Tris gels (Invitrogen), which was then transferred to PVDF membranes (Immobilon-FL PVDF Millipore, IPFL00010) and blocked for an hour with Odyssey Blocking Buffer (PBS) (LI-COR Biosciences, 927-40000). Types of primary antibodies and the dilutions used for immunoblotting were as follows: anti-phospho-CHK2 (T68) (R&D Systems, AF1626, 1:400); anti-total CHK2 (Cell Signaling Technology, 3440, 1:1,000); anti-[…] (Cell Signaling Technology, 9718, 1:1,000); anti-GAPDH (Cell Signaling Technology, 5174, 1:1,000); anti-MLH1 (Cell Signaling Technology, 3515, 1:1,000); anti-MSH3 (BD Biosciences, 611390, 1:400); anti-WRN (Novus Biologicals, nb100-472, 1:1,000). The following secondary antibodies were used: goat anti-rabbit IRDye 800CW (LI-COR, 926-32211, 1:5,000), goat anti-rabbit IRDye 680LT (LI-COR, 926-68021), and goat anti-mouse IRDye 800CW (LI-COR, 926-32210). […]

[3] = test system: KM12 xenografts; experiment: KM12 xenograft growth with doxycycline-inducible shRNA; assay type: in vivo, mice; conditions: doxycycline induction of shRNA (FIG. 2D)
Description: Studies were approved by the Institutional Animal Care and Use Committee (IACUC) of the Broad Institute under animal protocol 0194-01-18. IACUC guidelines on the ethical use and care of animals were followed. For growth curves, 10^6 KM12 cells expressing WRN shRNA 1 or WRN-C911 shRNA 1 were inoculated subcutaneously into right hind flank of approximately 8-week-old female SCID Hairless Outbred (SHO) mice obtained from Charles River Laboratories. Tumors were measured twice weekly with calipers and the tumor volumes were calculated using the formula π/6×(width^2×length). When primary tumors reached around 100 mm^3, the mice were randomized onto Control Teklad Global 18% Protein Rodent Diet or Teklad Global 18% Protein Rodent Diet containing 625 mg kg^−1 doxycycline hyclate. Mice remained on their respective diets throughout the remainder of the study. Animal body weights were recorded twice weekly during the course of the study for body condition scoring. For the growth curves, n=5 (4 from days 15-18), 5, 4, 4 for WRN shRNA 1 without doxycycline, WRN shRNA 1 with doxycycline, WRN-C911 shRNA 1 without doxycycline, WRN-C911 shRNA 1 with doxycycline treatment, respectively. One mouse treated with KM12 cells with WRN shRNA 1 without doxycycline was euthanized before day 15 because of tumor ulceration. No experiments exceeded the maximal tumor volumes of 2,000 mm^3 set forth by the IACUC. […]

[4] = test system: MSI cells; experiment: Telomere PNA-FISH of metaphase spreads; assay type: cell-based; conditions: two MSI cell lines; 96 h after induction of shRNA
Description: (§1) In brief, 3×10^6 cells were plated in 10-cm dishes in the absence of doxycycline. For cells treated with doxycycline, 0.2 μg ml^−1 of doxycycline was added and refreshed every 48 h. Then, 96 h after adding doxycycline, cells were treated with 10 μg ml^−1 of colcemid for 3 h and then detached with trypsin. Half of the cell pellet was saved for immunoblot analysis. The other half of the cell pellet was treated with a hypotonic solution (60 mM KCl) and fixed with a 3:1 ratio of methanol:acidic acid. Metaphases were spread onto a slide and fixed with 3% formalin. The PNA-FISH probe ((CCCTAA)3 PNA probe (PNA Bio)) was applied to the slides and denatured at 85° C. for 3 min. The slides were washed with washing solution I (70% formamide, 0.1% Tween-20, 0.1% BSA in 10 mM Tris buffer, pH 7.5) twice and three times with washing solution II (150 mM NaCl, 0.1% Tween-20, 0.1% BSA in 50 mM Tris buffer, pH 7.5). Cy5-ATTCGTTGGAAACGGGA (SEQ ID NO: 28) was used to label centromeres. Images were captured with a Nikon Eclipse 80i microscope and processed with the NISElements BR software. In total, 30 to 60 metaphases were analyzed for cells of the indicated conditions. Two-tailed Student's 1-tests were performed (FIG. 4E). These experiments were performed twice.

[5] = test system: MSS cells; experiment: Telomere PNA-FISH of metaphase spreads; assay type: cell-based; conditions: two MSS cell lines; 96 h after induction of shRNA
Description: as §1

Substance | Rescue of viability by WRN cDNA ([1]; Cas9-expressing KM12 cells, 9 days after sgRNA transduction (FIG. 2C)) | Rescue of viability by exonuclease-dead (E84A) WRN cDNA ([1]; KM12 cells (FIGS. 2B and 2C)) | Rescue of viability by helicase-dead (K577M) WRN cDNA ([1]; KM12 cells (FIGS. 2B and 2C)) | Silencing of endogenous versus exogenous WRN (immunoblot) [2] | Tumor growth [3] | Chromosomal integrity (DSBs, fragmentation) in metaphase spreads [4] | Chromosomal integrity (DSBs, fragmentation) in metaphase spreads [5]
WRN EIJ sgRNA: sgRNA targeting a WRN exon-intron junction, target sequence AGCACGTACATAAGCATCAG (SEQ ID NO: 4) (only the sgRNA target sequence is given, scaffold and chemistry not given here, further chemistry not given here) | rescued | did not attenuate rescue | prevented rescue | silencing endogenous WRN, but not exogenous WRN cDNA | – | – | –
WRN shRNA 1: shRNA targeting WRN chosen from project DRIVE, CAGCACTGCCAATGGTTCCAA; SEQ ID NO: 5 | – | – | – | – | significantly impaired tumor growth | induced DSBs and fragmentation throughout chromosomes | but not in MSS cells

From patent publication US12246004B2, “Therapeutic treatment of microsatellite unstable cancers” (THE BROAD INSTITUTE, INC., priority 2018, dated 2025)
